Reference: US8420670B2 (Abbott Laboratories, priority 2007, dated 2013)
Where a name gives a salt, the structure may show the parent alone.

Columns and labels:
Human GlyT1c = target: T1, Human GlyT1c (Homo sapiens, UniProt P48067); assay: Glycine uptake in recombinant hGlyT1 expressing cells; format: cell-based; settings: hGlyT1c_5_CHO cells; [3H]-glycine uptake, 60-120 min
T1 construct: expressed in transfected cells; host or cells: CHO (hGlyT1c_5_CHO clone)
T1 sequence (P48067 1-706): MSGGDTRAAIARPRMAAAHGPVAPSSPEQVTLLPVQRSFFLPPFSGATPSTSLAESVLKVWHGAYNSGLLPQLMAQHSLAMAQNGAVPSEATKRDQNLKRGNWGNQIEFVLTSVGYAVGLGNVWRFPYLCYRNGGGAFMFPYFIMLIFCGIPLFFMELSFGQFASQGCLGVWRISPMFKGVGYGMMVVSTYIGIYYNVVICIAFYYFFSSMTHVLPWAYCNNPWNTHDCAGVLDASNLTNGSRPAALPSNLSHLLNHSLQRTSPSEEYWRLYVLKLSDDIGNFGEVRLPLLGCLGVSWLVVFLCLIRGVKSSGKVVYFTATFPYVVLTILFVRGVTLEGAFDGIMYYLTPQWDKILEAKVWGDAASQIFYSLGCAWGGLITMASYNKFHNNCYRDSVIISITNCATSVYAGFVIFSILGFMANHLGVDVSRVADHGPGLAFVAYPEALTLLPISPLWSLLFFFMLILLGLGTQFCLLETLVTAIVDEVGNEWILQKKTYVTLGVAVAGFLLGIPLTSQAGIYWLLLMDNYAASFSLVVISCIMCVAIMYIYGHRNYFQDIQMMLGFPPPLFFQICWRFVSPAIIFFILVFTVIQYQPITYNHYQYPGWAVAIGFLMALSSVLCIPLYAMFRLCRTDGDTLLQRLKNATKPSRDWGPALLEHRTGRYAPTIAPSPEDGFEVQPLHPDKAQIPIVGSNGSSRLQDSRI
Procedure: 1. Glycine Uptake in Recombinant hGlyT1 Expressing Cells:
Human GlyT1c expressing recombinant hGlyT1c—5_CHO cells were plated at 20,000 cells per well in 96 well Cytostar-T scintillation microplates (Amersham Biosciences) and cultured to sub-confluency for 24 h. For glycine uptake assays the culture medium was aspirated and the cells were washed once with 100 μl HBSS (Gibco BRL, #14025-050) with 5 mM L-Alanine (Merck #1007). 80 μl HBSS buffer were added, followed by 10 μl inhibitor or vehicle (10% DMSO) and 10 μl [^3H]-glycine (TRK71, Amersham Biosciences) to a final concentration of […] for initiation of glycine uptake. The plates were placed in a Wallac Microbeta (PerkinElmer) and continuously counted by solid phase scintillation spectrometry during up to 3 hours. Nonspecific uptake was determined in the presence of 10 μM Org24598. IC50 calculations were made by four-parametric logistic nonlinear regression analysis (GraphPad Prism) using determinations within the range of linear increase of [^3H]-glycine incorporation between 60 and 120 min.

human GlyT1c transporter = target: T2, human GlyT1c transporter (Homo sapiens, UniProt P48067); assay: [3H]-(R)-NPTS radioligand binding assay using recombinant hGlyT1 expressing cell membranes; settings: 0.5 nM [3H]-(R)-NPTS, apparent Ki via Cheng-Prusoff, read-out: [3H]-(R)-NPTS bindung Ki
T2 construct: expressed in transfected cells; host or cells: recombinant hGlyT1-expressing cells
T2 sequence (P48067 1-706): T1 sequence (P48067 1-706)
Procedure: 2. [^3H]-(R)-NPTS Radioligand Binding Assays using Recombinant hGlyT1 Expressing Cell Membranes:
Radioligand binding to human GlyT1c transporter-expressing membranes was measured in duplicate in a total volume of 200 μl in 96-well plates. To 100 μl of membrane suspension (yielding a final membrane protein concentration of 50 μg/ml) in assay buffer (120 mM NaCl, 2 mM KCl, 10 mM Hepes, 1 mM MgCl2, 1 mM CaCl2, pH 7.5) […] of [^3H]-(R)NPTS (0.5 nM final) were added in assay buffer. For competition experiments 10 μl of buffer or unlabeled compound solution obtained from dilution series of test compounds in DMSO followed. An intermediate 1:10 dilution in assay buffer yielded a final DMSO concentration of 1%. Non-specific binding was determined in the presence of 10 μM Org24598 (or its racemate Org24461) for [^3H]-(R)-NPTS. After incubation at room temperature for 1 h, the incubation mixture was harvested (Tomtec Mach III U Harvester) through 96-well GF/B filter plates (PerkinElmer), presoaked for 1 h with 40 μl per well of 0.1% polyethylene-imine (PEI). After washing twice with ice-cold 50 mM Tris-HCl pH 7.4 buffer, drying and addition of 35 μl scintillator (BetaplateScint, PerkinElmer) per well followed. The radioactivity was determined by liquid scintillation spectrometry in a MicroBeta (PerkinElmer) plate counter.
Data analysis: For binding of [^3H]-(R)-NPTS to cell membranes, the calculation of Kd and Bmax values from the saturation binding assays and the IC50 values from the displacement binding was performed by iterative non-linear regression analysis adapted from the ‘Ligand’ program (Munson and Rodbard, 1980). Radioligand displacement curves in absence or in presence of increasing concentrations of tested compounds were fitted using a one-site fit and the apparent Ki values were calculated from the IC50 values using the Cheng-Prusoff equation (Cheng and Prusoff 1973).

IC50 (Human GlyT1c) [µM]	Ki (human GlyT1c transporter) [µM]	Structure (SMILES)
≤ 1	≤ 0.1	Cc1cc(NCc2ccc(Cl)c(Cl)c2)c2cccc(OCc3ccccc3)c2n1 [Example 46, (8-Benzyloxy-2-methylquinolin-4-yl)-(3,4-dichlorobenzyl)-amine]
≤ 10	≤ 10	COc1cccc2c(NC(CN3CCOCC3)c3ccc(Cl)cc3)cc(C)nc12 (stereo not drawn) [Example 65, [1-(4-Chlorophenyl)-2-morpholin-4-yl-ethyl]-(8-methoxy-2-methylquinolin-4-yl)-amine]
≤ 10	≤ 1	CN(C)c1cc(NCc2ccc(Cl)cc2Cl)c2ccccc2n1 [Example 96, N*4*-(2,4-Dichlorobenzyl)-N*2*,N*2*-dimethylquinoline-2,4-diamin]
≤ 0.1	≤ 0.1	Cc1cc(NCc2ccc(Cl)c(Cl)c2)c2cccc(OCCN3CCOCC3)c2n1 [Example 48, (3,4-Dichlorobenzyl)-[2-methyl-8-(2-morpholin-4-yl-ethoxy)-quinolin-4-yl]-amine dihydrochloride]
≤ 10	≤ 10	Cc1cc(N[C@@H](c2ccccc2)[C@@H]2CCCCN2C)c2ccccc2n1 [Example 61, (S)—((S)-1-Methylpiperidin-2-yl)-phenylmethyl]-(2-methylquinolin-4-yl)-amine dihydrochloride]
≤ 10	≤ 10	Cc1cc(NCc2cccc(Cl)c2Cl)c2ccccc2n1 [Example 91, (2,3-Dichloro-benzyl)-(2-methylquinolin-4-yl)-amine]
≤ 0.1	≤ 0.1	CSc1cccc2c(NCc3ccc(Cl)c(Cl)c3)cc(C)nc12 [Example 88, (3,4-Dichlorobenzyl)-(2-methyl-8-methylsulfanylquinolin-4-yl)-amine]
≤ 1	≤ 1	Cc1cc(NCc2ccc(Cl)c(Cl)c2)c2cccc(Oc3ccccc3)c2n1 [Example 44, (3,4-Dichlorobenzyl)-(2-methyl-8-phenoxyquinolin-4-yl)-amine]
≤ 10	≤ 10	CCCOc1cccc2c(NCc3ccc(C(F)(F)F)c(Cl)c3)cc(C)nc12 [Example 45, (3-Chloro-4-trifluoromethylbenzyl)-(2-methyl-8-propoxyquinoline-4-yl)-amine hydrochloride]
≤ 1	≤ 0.1	Cc1cc(NCc2ccc(Cl)c(Cl)c2)c2cccc(OCCN(C)C)c2n1 [Example 50, (3,4-Dichlorobenzyl)-[8-(2-dimethylamino-ethoxy)-2-methylquinolin-4-yl]-amine dihydrochloride]
≤ 10	≤ 1	Cc1cc(NCc2ccc(Cl)c(Cl)c2)c2cccc(NS(=O)(=O)c3ccccc3)c2n1 [Example 8, N-[4-(3,4-Dichlorobenzylamino)-2-methylquinolin-8-yl]-phenylsulfonamide]
≤ 0.1	≤ 0.1	CN(C)c1cc(NCc2ccc(Cl)c(Cl)c2)c2ccccc2n1 [Example 95, N*4*-(3,4-Dichlorobenzyl)-N*2*,N*2*-dimethylquinoline-2,4-diamine]
≤ 10	≤ 1	Cc1cc(NCc2ccc(Cl)c(Cl)c2)c2cccc(S(=O)(=O)N(C)C)c2n1 [Example 1, 4-(3,4-Dichlorobenzylamino)-2-methylquinoline-8-sulfonic dimethylamide]
≤ 1	≤ 1	COc1cccc2c(NCc3ccc(Cl)cc3)cc(C)nc12 [Example 84, (4-Chlorobenzyl)-(2-methyl-8-methoxyquinolin-4-yl)amine]
≤ 1	≤ 0.1	Cc1cc(NCc2ccc(Cl)c(Cl)c2)c2cccc(OCCn3cccn3)c2n1 [Example 47, (3,4-Dichlorobenzyl)-[2-methyl-8-(2-pyrazol-1-yl-ethoxy)-quinolin-4-yl]-amine hydrochloride]
≤ 1	≤ 1	Cc1cc(NCc2ccc(Cl)c(Cl)c2)c2cccc([S+](C)[O-])c2n1 (stereo not drawn) [Example 92, (3,4-Dichlorobenzyl)-(8-methanesulfinyl-2-methylquinolin-4-yl)-amine]
≤ 0.1	≤ 0.1	Cc1cc(NCc2ccc(Cl)c(Cl)c2)c2cccc(C)c2n1 [Example 87, (3,4-Dichlorobenzyl)-(2-methyl-8-methylquinolin-4-yl)-amine]
≤ 1	≤ 0.1	CCNc1cccc2c(NCc3ccc(Cl)c(Cl)c3)cc(C)nc12 [Example 9, N*4*-(3,4-Dichlorobenzyl)-N*8*-ethyl-2-methylquinolin-4,8-diamine]
≤ 1	≤ 1	CSc1cccc2c(NCc3ccc(F)c(F)c3)cc(C)nc12 [Example 86, (3,4-Difluorobenzyl)-(2-methyl-8-methylsulfanylquinolin-4-yl)-amine]
≤ 1	≤ 0.1	CNc1cccc2c(NCc3ccc(Cl)c(Cl)c3)cc(C)nc12 [Example 15, N*4*-(3,4-Dichlorobenzyl)-N*8*-methyl-2-methylquinolin-4,8-diamine]
≤ 100	≤ 10	C=CCN1CCCC[C@H]1[C@@H](Nc1cc(C)nc2ccccc12)c1ccccc1 [Example 59, [(S)—((S)-1-Allylpiperidin-2-yl)-phenylmethyl]-(2-methylquinolin-4-yl)-amine]
≤ 1	≤ 0.1	COc1cccc2c(N[C@H](C)c3ccc(Cl)cc3)cc(C)nc12 [Example 58, [(R)-1-(4-Chlorophenyl)-ethyl]-(8-methoxy-2-methylquinolin-4-yl)-amine]
≤ 10	≤ 10	Cc1cc(NCc2ccc(Cl)c(Cl)c2)c2cccc(NC(=O)C(C)C)c2n1 [Example 14, N-[4-(3,4-Dichlorobenzylamino)-2-methylquinolin-8-yl]-isobutyramide]
≤ 1	≤ 1	COc1cccc2c(NC(c3ccncc3)c3ccc(Cl)cc3)cc(C)nc12 (stereo not drawn) [Example 73, [(4-Chlorophenyl)-pyridin-4-ylmethyl]-(8-methoxy-2-methylquinolin-4-yl)-amine]
≤ 1	≤ 0.1	Cc1cc(N[C@@H](c2ccccc2)[C@@H]2CCCCN2)c2cccc(OCCNS(C)(=O)=O)c2n1 [Example 37, N-(2-{2-Methyl-4-[((S)-phenyl-(S)-piperidin-2-yl-methyl)-amino]-quinolin-8-yloxy}-ethyl)methanesulfonamide dihydrochloride]
≤ 1	≤ 0.1	Cc1cc(NCc2ccc(Cl)c(Cl)c2)c2cccc(OCCNS(=O)(=O)c3ccc4ccccc4c3)c2n1 [Example 28, Naphthyl-2-sulfonic {2-[4-(3,4-dichlorobenzylamino)-2-methylquinolin-8-yloxy]-ethyl}-amide]

Structure (SMILES)	IC50 (Human GlyT1c) [µM]	Ki (human GlyT1c transporter) [µM]
Cc1cc(NCc2ccc(Cl)c(Cl)c2)c2cccc(OCC(C)C)c2n1 [Example 51, (3,4-Dichlorobenzyl)-(8-isobutoxy-2-methylquinolin-4-yl)-amine]	≤ 1	≤ 1
